Here are results for one compound from patent US11083717B2, “Compositions and methods for drug sensitization of parasites” (The Texas A&M University System, priority 2015, dated 2021).

The test system of series [1] is Cryptosporidium parvum (CP). In words: Cell culture model of Cryptosporidium parvum infection in HCT-8 cells, real-time qRT-PCR. Format: cell-based. The following applies: Cryptosporidium parvum. The method in brief: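 HCT-8 monolayers were infected with C. parvum Iowa oocysts (1.5×10^4/well) for 3 h, then compounds were added after medium exchange and cells were incubated 41 h more (44 h total, 37 °C). Parasite Cp18S rRNA was measured by one-step SYBR qRT-PCR of lysates, normalized to host Hs18S, and % inhibition at the stated µM was derived from a standard curve.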

The nature of series [2]: HCLint in vitro intrinsic clearance, human (HLM). Format: in vitro ADME.
Series [3] in a line: Plasma pharmacokinetics in mouse. Format: in vivo, female Balb/c mouse. The following applies: for AUC(0-t): read-out: AUC0-24 (converted). As for the experimental part:
To investigate the relationship between anticryptosporidial activity and systemic exposure the plasma pharmacokinetics for NZ-369 were measured. […] The pharmacokinetics of NZ-369 following single intravenous (IV) and oral administration (PO) at 3 and 10 mg free base/kg respectively to the female Balb/c mouse.

The mark [4] stands for this setting: female, Balb/c, mouse, plasma, 3 mg/kg, IV 3 mg free base/kg, single dose.
Setting [5] is: female, Balb/c, mouse, plasma, 10 mg/kg, PO 10 mg free base/kg, single dose.

Converted amounts (≈) assume the structure as drawn. Like-named read-outs stand apart in the source and are kept apart here.

A word on the MIC50: it is an inhibitory concentration at the 50% level, which refers to growth in some studies and to a panel of isolates in others. By half-life is commonly meant how long it takes for the measured level to halve. Read a high half-life as slow loss. What is called Cmax is the highest concentration seen after dosing. Broadly, the Tmax is the time from dosing to the highest level. In general, bioavailability refers to the share of a dose that reaches the circulation, judged against a reference dose that is usually intravenous. Read a low bioavailability as little systemic uptake. In the case of `CNC(=O)C(C)c1ccc(Oc2nc3ccc(Cl)cc3s2)cc1` (stereo not drawn) [NZ-369, 2-{4-[(6-chloro-1,3-benzothiazol-2-yl)oxy]phenyl}-N-methylpropanamide], the MIC50 in series [1] (44 h, CP in HCT-8 cells, 44 h infection, 50% reduction of parasite growth vs control, NA: not active, read-out: MIC50) fell in the range of 50 to 80 nM (≈ 0.0173 to 0.0277 µg/mL). For the same compound, the MIC50 in series [1] (read-out: MIC50 (nM) (CP)) was determined as 80 nM (≈ 0.0277 µg/mL). Also, in series [2], the “HCLint (mL/min/g liver), HLM” value was “HLM = 0.69 mL/min/g liver”. Further, the “Clb” value in series [3] (IV 3 mg free base/kg, single dose) came out at 6.6 mL/min/kg. Besides, in series [3] (setting [4]), the half-life is 204 min and the AUC(0-t) was 7540 ng·h/mL. Besides, in series [3] (female, Balb/c, mouse, plasma, 3 mg/kg, IV 3 mg free base/kg, single dose, read-out: Vdss), the Vd was 1.7 L/kg. For the same compound, in series [3] (setting [5]), the Cmax was found to be 2160 ng/mL, the Tmax came to 2 h and the AUC(0-t) was 19800 ng·h/mL. For the same compound, the bioavailability in series [3] (female, Balb/c, mouse, plasma, 10 mg/kg, printed in the IV column, PO 10 vs IV 3 mg free base/kg) was 78.8%. Also, in series [3] (plasma), the “systemic pharmacokinetics (in words)” value was “excellent systemic pharmacokinetics”.
